The results in this text go back to ChEMBL document CHEMBL1641588, “3-[Benzimidazo- and 3-[benzothiadiazoleimidazo-(1,2-c)quinazolin-5-yl]-2H-chromene-2-ones as potent antimicrobial agents” (2011).

As a reminder, the MIC is the smallest concentration in the dilution series that meets the test's criterion for growth inhibition. A higher MIC goes with a less susceptible organism.

In brackets after ≈: the same amount, converted by molar mass.

Test [1] relates to Bacillus subtilis. As to the kind of experiment: Antibacterial activity against Bacillus subtilis at 1000 ug/mL after 72 hrs by agar diffusion assay. The class given is functional. The conditions noted are these: read-out: IZ. (In general: In agar diffusion tests the substance spreads into inoculated agar from a disc or well.)
For test [2], the system named is Staphylococcus aureus. As to the kind of experiment: Antibacterial activity against Staphylococcus aureus at 1000 ug/mL after 72 hrs by agar diffusion assay. Type of test: functional. The conditions noted are these: read-out: IZ.
Test [3] relates to Streptococcus pyogenes. As to the kind of experiment: Antibacterial activity against Streptococcus pyogenes at 1000 ug/mL after 72 hrs by agar diffusion assay. The class given is functional. The conditions noted are these: read-out: IZ.
The subject of test [4] is Escherichia coli. As to the kind of experiment: Antibacterial activity against Escherichia coli at 1000 ug/mL after 72 hrs by agar diffusion assay. Type of test: functional. The conditions noted are these: read-out: IZ.
Test [5] relates to Klebsiella pneumoniae. As to the kind of experiment: Antibacterial activity against Klebsiella pneumoniae at 1000 ug/mL after 72 hrs by agar diffusion assay. The conditions noted are these: read-out: IZ. Type of test: functional.
Test [6] concerns Salmonella typhimurium. The test can be described thus: Antibacterial activity against Salmonella Typhimurium at 1000 ug/mL after 72 hrs by agar diffusion assay. Type of test: functional, Salmonella enterica subsp. enterica serovar Typhimurium. To be noted: Salmonella enterica, read-out: IZ.
Test [7] deals with Aspergillus niger. As to the kind of experiment: Antifungal activity against Aspergillus niger at 1000 ug/mL after 72 hrs by agar diffusion assay. The class given is functional. The conditions noted are these: read-out: IZ.
Test [8] has as its system Candida albicans. The test can be described thus: Antifungal activity against Candida albicans at 1000 ug/mL after 72 hrs by agar diffusion assay. Type of test: functional. To be noted: read-out: IZ.
Test [9] has as its system Aspergillus flavus. As to the kind of experiment: Antifungal activity against Aspergillus flavus at 1000 ug/mL after 72 hrs by agar diffusion assay. Type of test: functional. To be noted: read-out: IZ.
The test system of test [10] is Bacillus subtilis. The test can be described thus: Antibacterial activity against Bacillus subtilis by liquid dilution method. The class given is functional.
Test [11] has as its system Staphylococcus aureus. As to the kind of experiment: Antibacterial activity against Staphylococcus aureus by liquid dilution method. Type of test: functional.
Test [12] has as its system Streptococcus pyogenes. The test can be described thus: Antibacterial activity against Streptococcus pyogenes by liquid dilution method. Type of test: functional.
The test system of test [13] is Escherichia coli. The test can be described thus: Antibacterial activity against Escherichia coli by liquid dilution method. The class given is functional.
The subject of test [14] is Klebsiella pneumoniae. As to the kind of experiment: Antibacterial activity against Klebsiella pneumoniae by liquid dilution method. The class given is functional.
Test [15] deals with Salmonella typhimurium. As to the kind of experiment: Antibacterial activity against Salmonella Typhimurium by liquid dilution method. To be noted: Salmonella enterica. Type of test: functional, Salmonella enterica subsp. enterica serovar Typhimurium.
Test [16] deals with Aspergillus niger. The test can be described thus: Antifungal activity against Aspergillus niger by liquid dilution method. The class given is functional.
The subject of test [17] is Candida albicans. As to the kind of experiment: Antifungal activity against Candida albicans by liquid dilution method. The class given is functional.
The subject of test [18] is Aspergillus flavus. The test can be described thus: Antifungal activity against Aspergillus flavus by liquid dilution method. Type of test: functional.

As to `O=c1oc2c(Br)cc(Br)cc2cc1-c1nc2ccccc2c2nc3c4nsnc4ccc3n12`, the zone of inhibition at 1000 µg/mL in test [1] stood at 41 mm; in test [2], 48 mm; in test [3] it was 37 mm; in test [4], 42 mm; in [5] it was 46 mm; in test [6], 45 mm. Further, the values for the zone of inhibition at 1000 µg/mL in [7], in test [8] and in test [9] were 34 mm, 32 mm and 37 mm, respectively. The MIC in [10] worked out at 10 µg/mL (≈ 17.3 µM); in test [11] it was 5 µg/mL (≈ 8.63 µM); in test [12] it was 15 µg/mL (≈ 25.9 µM); in test [13], 10 µg/mL (≈ 17.3 µM); in [14], 5 µg/mL (≈ 8.63 µM); in [15], 2.5 µg/mL (≈ 4.32 µM). In addition, the results for the MIC in test [16], in test [17] and in test [18] were 25 µg/mL (≈ 43.2 µM), 40 µg/mL (≈ 69.1 µM) and 35 µg/mL (≈ 60.4 µM), respectively.
For the compound `Cc1cccc2cc(-c3nc4ccccc4c4nc5c6nsnc6ccc5n34)c(=O)oc12`, the zone of inhibition at 1000 µg/mL was 26 mm in [1]; 29 mm in test [2]; 24 mm in test [3]; 20 mm in [4]; 32 mm in test [5]; 29 mm in test [6]. Further, the zone of inhibition at 1000 µg/mL in [7] is 28 mm; in test [8], 30 mm; in test [9] it was 33 mm. The MIC was 50 µg/mL (≈ 115 µM) in test [10]; 40 µg/mL (≈ 91.9 µM) in [11]; 45 µg/mL (≈ 103 µM) in [12]; 45 µg/mL (≈ 103 µM) in test [13]; 25 µg/mL (≈ 57.4 µM) in [14]; 30 µg/mL (≈ 68.9 µM) in test [15]. Further, the MIC in [16] is 50 µg/mL (≈ 115 µM); in test [17], 35 µg/mL (≈ 80.4 µM); in [18], 40 µg/mL (≈ 91.9 µM).
In the case of `O=c1oc2ccc([N+](=O)[O-])cc2cc1-c1nc2ccccc2c2nc3c4nsnc4ccc3n12`, the zone of inhibition at 1000 µg/mL amounted to 30 mm in test [1]; 27 mm in test [2]; 29 mm in [3]; 31 mm in test [4]; 27 mm in test [5]; 29 mm in [6]. Also, the zone of inhibition at 1000 µg/mL in [7] is 36 mm; in [8], 38 mm; in test [9], 44 mm. In addition, the MIC in [10] was 45 µg/mL (≈ 96.5 µM); in test [11] it was 35 µg/mL (≈ 75 µM); in test [12] it was 30 µg/mL (≈ 64.3 µM); in test [13] it was 35 µg/mL (≈ 75 µM); in test [14] it was 45 µg/mL (≈ 96.5 µM); in test [15], 35 µg/mL (≈ 75 µM). The MIC in test [16] amounted to 35 µg/mL (≈ 75 µM); in test [17], 30 µg/mL (≈ 64.3 µM); in test [18], 25 µg/mL (≈ 53.6 µM).
